Values quoted from earlier work, collected in US6670392B2, “Compositions and methods for the prevention and treatment of human prostate cancer” (Bioadvantex Pharma Inc., priority 2001, dated 2003).

Conditions: synthetic dl-α-tocopherol as standard; cited from earlier work

Cc1c(C)c2c(c(C)c1O)CC[C@@](C)(CCC[C@H](C)CCC[C@H](C)CCCC(C)C)O2 [d-α-tocopherol]
bioactivity relative to synthetic dl-α-tocopherol: 1.49 times
